Results published in patent publication US20190374533A1, “COMPOUNDS AND METHODS FOR INHIBITING NHE-MEDIATED ANTIPORT IN THE TREATMENT OF DISORDERS ASSOCIATED WITH FLUID RETENTION OR SALT OVERLOAD AND GASTROINTESTINAL TRACT DISORDERS” (Ardelyx, Inc., priority 2008, published 2019).

Columns and labels:
[1] = Determination of compound Cmax and AUC; type: in vivo; conditions: rat; Sprague-Dawley rats, oral gavage, serum 0.5-4 h; actual oral dose (mg/kg) given
Method in brief: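 Sprague-Dawley rats dosed orally by gavage at 2.5 mg/kg; serum sampled at 0.5, 1, 2 and 4 h. Acetonitrile protein precipitation, then LC/MS/MS quantitation against a standard curve.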

[2] = Parallel artificial membrane permeability assay (PAMPA); conditions: pH 7.4
rat NHE-3 = biological target: T1, rat NHE-3 (Rattus norvegicus, UniProt P26433); assay: Cell-based assay of NHE-3 activity (Pharmacological Test Example 1); conditions: OK cells expressing rat NHE-3; 0-30 uM test compound, 5 uM EIPA
T1 construct: expressed in transfected cells; host or cells: Opossum kidney (OK) cells (ATCC), electroporated
Method in brief: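 OK cells electroporated with rat NHE-3, loaded with 5 uM BCECF-AM in NH4Cl-HEPES (pH 7.4) for 30 min at room temperature, then acid-loaded 10 min in Na+-free choline buffer. Na+-dependent H+ antiport read as initial rate of pH-dye change; pIC50 from 3-6 replicate averages.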

fecal water content = assay: Pharmacodynamic model: effect of test compounds on fecal water content; type: in vivo, rat; conditions: female Sprague Dawley rats, 3 mg/kg oral, feces collected 16 hrs; for % Fecal water: mean of 6
Protocol: Normal female Sprague Dawlev rats (Charles-River laboratories international, Hollister, Calif.), 7-8 weeks old with body weight 175-200 g were acclimated for at least 3 days before proceeding to experiments. The animals were provided food (Harlan Teklad 2018c) and water ad lib, through the experiment. Animals were randomly grouped with 6 rats per group.
The experiments were initiated by orally dosing test compounds at 3 mg/kg in volume of 10 ml/kg. Rats from control group were gavaged with the same volume of vehicle (water). After dosing, rats were placed in metabolic cages for 16 hrs (overnight). Food and water consumption were monitored. After sixteen hours, feces and urine were collected. The percent of fecal water was measured by weighing fecal samples before and after drying.
Representative data of % fecal water content are shown in Table 12 (data are expressed as means, with 6 animals per data point). The differences between control and treated groups were evaluated by one way ANOVA with Dunnett post tests. Results are significant if p<0.05.

T1 sequence (P26433 29-831): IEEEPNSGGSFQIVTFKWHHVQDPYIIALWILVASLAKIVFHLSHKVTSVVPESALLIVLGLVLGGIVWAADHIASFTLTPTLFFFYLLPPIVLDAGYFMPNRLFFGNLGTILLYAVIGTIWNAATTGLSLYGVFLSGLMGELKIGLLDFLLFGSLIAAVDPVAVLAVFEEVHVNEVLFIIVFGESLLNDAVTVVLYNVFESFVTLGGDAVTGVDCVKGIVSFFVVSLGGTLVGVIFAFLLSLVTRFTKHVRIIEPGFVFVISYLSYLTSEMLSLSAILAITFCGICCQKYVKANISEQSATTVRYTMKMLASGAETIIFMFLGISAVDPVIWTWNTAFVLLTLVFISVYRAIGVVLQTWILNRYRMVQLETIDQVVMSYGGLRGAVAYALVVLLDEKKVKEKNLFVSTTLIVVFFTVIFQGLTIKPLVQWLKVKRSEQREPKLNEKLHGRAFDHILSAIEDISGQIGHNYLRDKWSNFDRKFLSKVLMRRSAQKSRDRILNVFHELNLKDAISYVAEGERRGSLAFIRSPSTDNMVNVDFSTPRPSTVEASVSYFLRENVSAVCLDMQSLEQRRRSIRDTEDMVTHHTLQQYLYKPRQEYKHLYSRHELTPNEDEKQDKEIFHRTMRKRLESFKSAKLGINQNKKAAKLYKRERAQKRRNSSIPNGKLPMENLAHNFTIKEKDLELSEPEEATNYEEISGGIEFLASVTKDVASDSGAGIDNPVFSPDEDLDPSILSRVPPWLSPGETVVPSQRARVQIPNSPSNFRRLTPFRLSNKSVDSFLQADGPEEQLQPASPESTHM

CN1Cc2c(Cl)cc(Cl)cc2C(c2cccc(S(=O)(=O)NCCP(=O)(O)O)c2)C1 (stereo not drawn) [Example 1, 2-(3-(6,8-dichloro-2-methyl-1,2,3,4-tetrahydroisoquinolin-4-yl)phenylsulfonamido)ethylphosphonic acid]
AUC [1]: 53 ng·h/mL | Cmax [1]: 21 ng/mL | Papp A→B at 3 h, 20 uM [2]: 0.53 ×10⁻⁶ cm/s

CN1Cc2c(Cl)cc(Cl)cc2C(c2ccc(NS(=O)(=O)NCCP(=O)([O-])[O-])cc2)C1.[Na+].[Na+] (stereo not drawn) [Example 30, 2-(N-(4-(6,8-dichloro-2-methyl-1,2,3,4-tetrahydroisoquinolin-4-yl)phenyl)sulfamoylamino)ethylphosphonic acid]
rat NHE-3 Average pIC50 (rat NHE-3): 5 to 6 | Papp A→B at 3 h, 20 uM [2]: 0.56 ×10⁻⁶ cm/s

CN1Cc2c(Cl)cc(Cl)cc2C(c2cccc(NS(=O)(=O)NCCP(=O)(O)O)c2)C1 (stereo not drawn) [Example 31, 2-(N-(3-(6,8-dichloro-2-methyl-1,2,3,4-tetrahydroisoquinolin-4-yl)phenyl)sulfamoylamino)ethylphosphonic acid]
rat NHE-3 Average pIC50 (rat NHE-3): 5 to 6 | Papp A→B at 3 h, 20 uM [2]: 0.61 ×10⁻⁶ cm/s

C/C(=C\c1cc(F)c(Oc2ccc(S(=O)(=O)NCCOCCOCCOCCNC(=O)CCCCCCC(=O)NCCOCCOCCOCCNS(=O)(=O)c3ccc(Oc4c(F)cc(/C=C(\C)C(=O)N=C(N)N)cc4F)cc3)cc2)c(F)c1)C(=O)N=C(N)N [Example 47, N,N′-(13,20 dioxo-3,6,9, 24, 27, 30-hexaoxa-12, 21-diazadotriacontane-1,32-diyl)bis[(E)-N-(diaminomethylene)-3-(3,5-difluoro-4-(4-sulfamoylphenoxy)phenyl)-2-methylacrylamide]]
rat NHE-3 Average pIC50 (rat NHE-3): >7 | Papp A→B at 3 h, 20 uM [2]: < 0.01 ×10⁻⁶ cm/s

C/C(=C\c1cc(F)c(Oc2ccc(S(=O)(=O)NCc3ccc(CP(=O)(O)O)cc3)cc2)c(F)c1)C(=O)N=C(N)N [Example 52, (E)-4-((4-(4-(3-(diaminomethyleneamino)-2-methyl-3-oxoprop-1-enyl)-2,6-difluorophenoxy)phenylsulfonamido)methyl)benzylphosphonic acid]
rat NHE-3 Average pIC50 (rat NHE-3): 5 to 6 | Papp A→B at 3 h, 20 uM [2]: 1.61 ×10⁻⁶ cm/s

C/C(=C\c1cc(F)c(Oc2ccc(S(=O)(=O)NCCCP(=O)(O)O)cc2)c(F)c1)C(=O)N=C(N)N [Example 54, (E)-3-(4-(4-(3-(diaminomethyleneamino)-2-methyl-3-oxoprop-1-enyl)-2,6-difluorophenoxy)phenylsulfonamido)propylphosphonic acid]
rat NHE-3 Average pIC50 (rat NHE-3): 5 to 6 | Papp A→B at 3 h, 20 uM [2]: 1.3 ×10⁻⁶ cm/s

C/C(=C\c1cc(F)c(Oc2ccc(S(=O)(=O)N(CC(=O)O)CP(=O)(O)O)cc2)c(F)c1)C(=O)N=C(N)N [Example 57, (E)-2-(4-(4-(3-(diaminomethyleneamino)-2-methyl-3-oxoprop-1-enyl)-2,6-difluorophenoxy)-N-(phosphonomethyl)phenylsulfonamido)acetic acid]
Papp A→B at 3 h, 20 uM [2]: 1.65 ×10⁻⁶ cm/s

COCCNC(=O)NS(=O)(=O)c1ccc(Oc2c(F)cc(/C=C(\C)C(=O)N=C(N)N)cc2F)cc1 [Example 58, (E)-N-(diaminomethylene)-3-(3,5-difluoro-4-(4-(N-(2-methoxyethylcarbamoyl)sulfamoyl)phenoxy)phenyl)-2-methylacrylamide]
Papp A→B at 3 h, 20 uM [2]: 0.2 ×10⁻⁶ cm/s

C/C(=C\c1cc(F)c(Oc2ccc(S(=O)(=O)NC(CC(=O)O)C(=O)O)cc2)c(F)c1)C(=O)N=C(N)N (stereo not drawn) [Example 59, (E)-2-(4-(4-(3-(diaminomethyleneamino)-2-methyl-3-oxoprop-1-enyl)-2,6-difluorophenoxy)phenylsulfonamido)succinic acid]
Papp A→B at 3 h, 20 uM [2]: 0.1 ×10⁻⁶ cm/s

N=C(N)N1CCN(c2cccc(-c3nc(N=C(N)N)nc4ccc(Cl)cc34)c2)CC1 [Example 60, 4-(3-(6-chloro-2-(diaminomethyleneamino)quinazolin-4-yl)phenyl)piperazine-1-carboximidamide]
rat NHE-3 Average pIC50 (rat NHE-3): 6 to 7 | Papp A→B at 3 h, 20 uM [2]: 0.99 ×10⁻⁶ cm/s

NC(N)=Nc1nc(-c2ccc(N3CCN(CC(=O)O)CC3)cc2)c2cc(Cl)ccc2n1 [Example 61, 2-(4-(4-(6-chloro-2-(diaminomethyleneamino)quinazolin-4-yl)phenyl)piperazin-1-yl)acetic acid]
Papp A→B at 3 h, 20 uM [2]: 0.1 ×10⁻⁶ cm/s

NC(N)=Nc1nc(-c2cccc(N3CCN(C(=O)[C@H](O)[C@@H](O)[C@H](O)[C@H](O)CO)CC3)c2)c2cc(Cl)ccc2n1 [Example 63, 2-(6-chloro-4-(3-(4-((2R,3S,4R,5R)-2,3,4,5,6-pentahydroxyhexanoyl)piperazin-1-yl)phenyl)quinazolin-2-yl)guanidine]
rat NHE-3 Average pIC50 (rat NHE-3): 5 to 6 | Papp A→B at 3 h, 20 uM [2]: 0.43 ×10⁻⁶ cm/s

NC(N)=Nc1nc(-c2cccc(N3CCN(CCO)CC3)c2)c2cc(Cl)ccc2n1 [Example 68, 2-(6-chloro-4-(3-(4-(2-hydroxyethyl)piperazin-1-yl)phenyl)quinazolin-2-yl)guanidine]
rat NHE-3 Average pIC50 (rat NHE-3): 6 to 7 | Papp A→B at 3 h, 20 uM [2]: 0.35 ×10⁻⁶ cm/s

NC(N)=Nc1nc(-c2ccc(N3CCN(CCO)CC3)cc2)c2cc(Cl)ccc2n1 [Example 69, 2-(6-chloro-4-(4-(4-(2-hydroxyethyl)piperazin-1-yl)phenyl)quinazolin-2-yl)guanidine]
rat NHE-3 Average pIC50 (rat NHE-3): 6 to 7 | Papp A→B at 3 h, 20 uM [2]: 0.3 ×10⁻⁶ cm/s

NC(N)=Nc1nc(-c2cccc(N3CCN(CCCC(=O)O)CC3)c2)c2cc(Cl)ccc2n1 [Example 70, 4-(4-(3-(6-chloro-2-(diaminomethyleneamino)quinazolin-4-yl)phenyl)piperazin-1-yl)butanoic acid]
Papp A→B at 3 h, 20 uM [2]: 0.4 ×10⁻⁶ cm/s

C/C(=C\c1cc(F)c(Oc2ccc(S(=O)(=O)NCCCS(=O)(=O)O)cc2)c(F)c1)C(=O)N=C(N)N [Example 71, (E)-3-(4-(4-(3-(diaminomethyleneamino)-2-methyl-3-oxoprop-1-enyl)-2,6-difluorophenoxy)phenylsulfonamido)propane-1-sulfonic acid]
Papp A→B at 3 h, 20 uM [2]: 0.45 ×10⁻⁶ cm/s

CN1Cc2c(Cl)cc(Cl)cc2C(c2ccc(S(=O)(=O)N(CC(=O)O)CP(=O)(O)O)cc2)C1 (stereo not drawn) [Example 72, 2-(4-(6,8-dichloro-2-methyl-1,2,3,4-tetrahydroisoquinolin-4-yl)-N-(phosphonomethyl)phenylsulfonamido)acetic acid]
Papp A→B at 3 h, 20 uM [2]: 0.2 ×10⁻⁶ cm/s

NC(N)=Nc1nc(-c2ccc(N3CCN(CCCC(=O)O)CC3)cc2)c2cc(Cl)ccc2n1 [Example 73, 4-(4-(4-(6-chloro-2-(diaminomethyleneamino)quinazolin-4-yl)phenyl)piperazin-1-yl)butanoic acid]
Papp A→B at 3 h, 20 uM [2]: 0.27 ×10⁻⁶ cm/s

CCNC(=O)NS(=O)(=O)c1ccc(Oc2c(F)cc(/C=C(\C)C(=O)N=C(N)N)cc2F)cc1 [Example 74]
Papp A→B at 3 h, 20 uM [2]: 0.45 ×10⁻⁶ cm/s

C/C(=C\c1cc(F)c(Oc2ccc(S(=O)(=O)NC(=O)NCCN(C)C)cc2)c(F)c1)C(=O)N=C(N)N [Example 75, (E)-N-(diaminomethylene)-3-(4 (4-(N-(2-(dimethylamino)ethylcarbamoyl)sulfamoyl)phenoxy)-3,5-difluorophenyl)-2-methylacrylamide]
Papp A→B at 3 h, 20 uM [2]: 0.4 ×10⁻⁶ cm/s

CN1Cc2c(Cl)cc(Cl)cc2C(c2ccc(S(=O)(=O)Nc3ccc(P(=O)(O)O)cc3)cc2)C1 (stereo not drawn) [Example 76, 4-(4-(6,8-dichloro-2-methyl-1,2,3,4-tetrahydroisoquinolin-4-yl)phenylsulfonamido)phenylphosphonic acid]
Papp A→B at 3 h, 20 uM [2]: 0.2 ×10⁻⁶ cm/s

CN1Cc2c(Cl)cc(Cl)cc2C(c2ccc(S(=O)(=O)NCCOCCOCCNC(=O)NCCCCNC(=O)NCCOCCOCCNS(=O)(=O)c3ccc(C4CN(C)Cc5c(Cl)cc(Cl)cc54)cc3)cc2)C1 (stereo not drawn) [Example 238, N,N′-(10,17-dioxo-3,6,21,24-tetraoxa-9,11,16,18-tetraazahexacosane-1,26-diyl)bis(4-(6,8-dichloro-2-methyl-1,2,3,4-tetrahydroisoquinolin-4-yl)benzenesulfonamide)]
% Fecal water (% of control) (fecal water content): 121% of control | % Fecal water (fecal water content): 60%

CN1Cc2c(Cl)cc(Cl)cc2C(c2ccc(S(=O)(=O)NCCOCCOCCNC(=O)Nc3ccc(NC(=O)NCCOCCOCCNS(=O)(=O)c4ccc(C5CN(C)Cc6c(Cl)cc(Cl)cc65)cc4)cc3)cc2)C1 (stereo not drawn) [Example 239, N,N′-(2,2′-(2,2′-(2,2′-(1,4-phenylenebis(azanediyl))bis(oxomethylene)bis(azanediyl)bis(ethane-2,1-diyl))bis(oxy)bis(ethane-2,1-diyl))bis(oxy)bis(ethane-2,1-diyl))bis(4-(6,8-dichloro-2-methyl-1,2,3,4-tetrahydroisoquinolin-4-yl)benzenesulfonamide)]
% Fecal water (% of control) (fecal water content): 114% of control | % Fecal water (fecal water content): 58%
